From paper PMC12301034, “Design and Synthesis of Boronic Chalcones with Dual Anticancer and Anti-Inflammatory Activity” (Molecules, 2025)

Experiments:
[1] = Distribution coefficient (eLogD) by HPLC retention time; type: physicochemical; conditions: Supelco Ascentis Express RP Amide column, pH 7.4, read-out: LogD7.4
Description: The determination of the experimental distribution coefficient (eLogD) was based on the retention time of molecules in the stationary phase using high-performance liquid chromatography (HPLC). Chromatographic analysis was performed on a Supelco Ascentis Express RP Amide HPLC column (5 cm × 2.1 mm, 2.7 μm), with a binary gradient mobile phase consisting of (A) 5% methanol in 10 mM ammonium acetate pH 7.4 and (B) 100% methanol. The mobile phase was eluted as follows: 0 min, 95% A; 0.3 min, 100% A; 5.2 min, 0% A; 5.6 min, 0% A; 5.8 min, 100% A; 7.0 min, 100% A. The total run time was 7 min, with a sample injection volume of 5 μL. Test compounds were prepared by diluting stock solutions (1.0 mg/mL in DMSO) in a mixture of mobile phases A:B (1:1 v/v) containing an internal standard (200 nM), achieving a final concentration of 1.0 μg/mL (final DMSO concentration ≤ 1%). The prepared solutions were transferred to a 96-well plate in duplicate, which was then sealed and introduced into the autosampler for analysis. […]. These reference and control compounds were injected at the beginning and end of the experimental procedure. A calibration graph was obtained by plotting the retention times of the reference compounds against their respective LogD values. The resulting equation (y = mx + b) was used to calculate the eLogD7.4 values for the test compounds and controls. […]

[2] = Partition coefficient (Log P), OECD 117 HPLC method
[3] = test system: SCC-25 cells; assay: Microscopy of cells after incubation with compound; type: cell-based, human; conditions: 24 h of incubation, 9.45 μM, SCC-25 vs NOK-si
[4] = Metabolic stability in mouse (CD-1) liver microsomes; type: in vitro ADME
Description: The metabolic stability of test compounds and controls [imipramine (Sigma-Aldrich, St. Louis, MO, USA), verapamil (Sigma-Aldrich, St. Louis, MO, USA), and warfarin (Sigma-Aldrich, St. Louis, MO, USA)] were assessed using human pooled liver human microsomes (20 mg/mL) (GIBCO, Frederick, MD, USA) and pooled liver CD1 mouse microsomes (20 mg/mL) (GIBCO, Frederick, MD, USA). […] Microsomal suspensions were thawed and diluted in phosphate buffer to obtain a final concentration of 0.25 mg/mL. A solution of NADPH (Sigma-Aldrich, St. Louis, MO, USA) at […] was also prepared in phosphate buffer. […] The plate was incubated at 37 °C under shaking (100 rpm). […] The reactions were stopped by adding quenching solution (75 μL) consisting of acetonitrile:methanol (1:1) with an internal standard (50 nM). Samples were centrifuged (3500 rpm, 30 min) to remove precipitated microsomal proteins, and the supernatant fractions were analyzed by an LCMS-8045 system (Shimazu, Kyoto, Japan). The chromatographic analysis was performed using a Supelco Ascentis Express C18 column (3 cm × 2.1 mm, 5 μm). The mobile phases consisted of water + 0.1% formic acid (A) and acetonitrile + 0.1% formic acid (B). […] The run time was 2 min, with a sample injection volume of 10 μL and a flow rate of 0.7 mL/min. Metabolic stability was assessed by calculating the peak area ratios (analyte/internal standard) and converting them into the percentage of the compound remaining, using the area ratio at time 0 as 100%.

[5] = test system: NOK-si cells; assay: MTT cytotoxicity assay on NOK-si normal oral keratinocytes; type: cell-based; conditions: 24 h incubation
Description: The SCC-25 (ATCC® CRL-1628™), Detroit-562 (ATCC® CCL-138™), and THP-1 (ATCC® TIB-202™) cells were purchased from Rio de Janeiro Cell Bank (Duque de Caxias, Brazil), and NOK-si was kindly provided by Prof. Carlos Rossa from the School of Dentistry—UNESP. All the cells were cultivated according to standard conditions. Human colorectal adenocarcinoma HCT116 cell lines (ATCC® CCL-247™) expressing p53 and its p53-null isogenic derivative (HCT116 p53^−/−) were provided by B. Vogelstein (The Johns Hopkins Kimmel Cancer Center, Baltimore, MD, USA).
Cells (NOK-si, SCC-25, and Detroit-562) were grown in a DMEM medium (Dulbecco’s Modified Eagle Medium), supplemented according to the needs of each lineage, as recommended by its cell banks, with 2 mM L-glutamine, 10% or 20% fetal bovine serum (FBS), 1% antibiotic–antimycotic solution (5 mg/mL penicillin, 5 mg/mL streptomycin, and 10 mg/mL neomycin), 4.5 g/L of glucose, and 3.7 g/L of sodium bicarbonate (NaHCO3). All cell lines were cultured in flasks at 37 °C in 5% carbon dioxide (CO2) and 95% of relative humidity. The assays were conducted between the third- and the seventh-cell passage, with sub-cultures every 3–4 days to maintain exponential growth. The cell viability was checked using the trypan blue dye exclusion assay for all experiments, where over 95% of the cells were viable at the beginning of the tests. NOK-si, SCC-25, and Detroit-562 were initially thawed and cultured in 25 cm^2 cell culture flasks. Cell growth was monitored using a microscope, and the culture medium was changed periodically. Upon reaching confluency, cell dissociation was achieved by adding 5 mL of trypsin (Sigma-Aldrich, St Louis, MO, USA) and incubating the bottles in a CO2 incubator for 10 min. Subsequently, the cells were transferred to 15 mL Falcon tubes and centrifuged at 2000 rpm for 10 min. Cell counting was performed using a Countess II FL automated cell counter (ThermoFischer, Waltham, MA, USA). The cells were seeded at a density of 30,000 cells per well in 96-well plates. The plates were then incubated at 37 °C in 5% CO2 for 24 h. Following this, test compounds were incubated for another 24 h at 10 different concentrations: 50, 25, 12.5, 6.25, 3.12, 1.56, 0.78, 0.39, 0.19, and 0.097 µg/mL. After the specified time, MTT reagent (3 mg/mL) (Sigma-Aldrich, St Louis, MO, USA) dissolved in phenol-free RPMI 1640 was added and incubated for 4 h. The formed MTT crystals were solubilized using 2-propanol P.A. (Sigma-Aldrich, St Louis, MO, USA) with agitation. Absorbance was read at 562 nm using an EZ Read 400 microplate reader (Biochrom, Cambridge, UK) and ADAP 2.0 Biochrom software (version 2.0). IC50 values and graphs were calculated using Excel and Prism software (version 10.4.1). The MTT assay results were evaluated for normality using the Shapiro–Wilk test, followed by one-way ANOVA with Tukey’s post hoc test at a significance level of 5%.

chromatographic logD [1]: 3.92
chromatographic logP [2]: 2.92
microsomal CLint at 0.51 μM ([4]; CD-1, mouse, microsomes, pH 7.4): 36 µL/min/mg
half-life at 0.51 μM ([4]; CD-1, mouse, pooled liver microsomes, pH 7.4, read-out: Mouse Liver Microsome (MsLM) T1/2): 56.8 min
Mouse Liver Microsome (MsLM) T1/2 ([4]; mouse): 77.02 min
Structure (SMILES): COc1cccc(C(=O)/C=C/c2cccc(B(O)O)c2)c1 [Compound 5, (E)-(3-(3-(3-methoxyphenyl)-3-oxoprop-1-en-1-yl)phenyl)boronic acid]
morphological alterations [3]: morphological alterations suggesting cell death features
NOK-si IC50 [5]: 58.9 ± 10.63 µM
CC50 ([5]; Keratinocyte, read-out: NOK-si IC50): 58.9 µM
